# Assay results taken from ChEMBL document CHEMBL1201862, “PubChem BioAssay data set” (2004).
# Calls of active or inactive are those of the source.
# Columns and labels:
# Large T antigen = Large T antigen (Simian virus 40, UniProt P03070); format: functional, Betapolyomavirus macacae;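 further: Confirmatory-stage PubChem screen for compounds that inhibit SV40 T antigen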
# [1] = target: T1, Voltage-gated N-type calcium channel alpha-1B subunit/Amyloid beta A4 precursor protein-binding family A member 1 (Homo sapiens, UniProt Q00975+Q02410); format: protein assay
# [2] = target: T1, Voltage-gated N-type calcium channel alpha-1B subunit/Amyloid beta A4 precursor protein-binding family A member 1; format: protein assay; remark: listed apart in the source
# Beta-galactosidase [3] = target: T2, Beta-galactosidase (Escherichia coli, UniProt Q8VNN2); experiment: Dose response counterscreen for EBI2 assay utilizing the enzyme, b-galactosidase.; format: functional
# [4] = viability of PTEN-deleted HCT116 cells – cell-based, HCT116 PTEN knockout, dose response (AID 1047); format: functional;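 further: HCT116 colon tumor cells with PTEN knocked out; cells exposed to compound for 60 hours before readout; potency for loss of cell viability measured by luminescence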
# [5] = viability of HCT116 lacking mutant beta-catenin – cell-based, human colon tumor, dose response (AID 1045); format: functional;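 further: HCT116 colon tumor cells with beta catenin knocked out; cells exposed to compound for 60 hours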
# [6] = target: G-protein coupled receptor 55 (Homo sapiens, UniProt Q9Y2T6); experiment: inhibition of LPI-stimulated GPR55 beta-arrestin translocation – imaging, U2OS, beta-arrestin-GFP, LPI agonist, primary screen (AID 2013); format: functional;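 further: antagonist potency measured as reduced agonist-driven arrestin aggregation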
# [7] = target: Eukaryotic translation initiation factor 4H (Homo sapiens, UniProt Q15056); experiment: inhibitors of translation initiation factor eIF4H – SAR follow-up (AID 435011); format: functional
# [8] = target: Polyadenylate-binding protein 1 (Homo sapiens, UniProt P11940); experiment: PABP inhibition in translation initiation, SAR follow-up (AID 435018); format: functional
# Tumor necrosis factor = Tumor necrosis factor (Homo sapiens, UniProt P01375); experiment: analog potency on TNFa NF-kB signaling – cell-based, revised, SAR follow-up (AID 2337); format: functional
# [9] = target: T3, Nucleotide-binding oligomerization domain-containing protein 1 (Homo sapiens, UniProt Q9Y239); experiment: blockers of NOD1 pathway activity – revised, SAR follow-up (AID 2333); format: functional
# T3 sequence (Q9Y239 whole entry): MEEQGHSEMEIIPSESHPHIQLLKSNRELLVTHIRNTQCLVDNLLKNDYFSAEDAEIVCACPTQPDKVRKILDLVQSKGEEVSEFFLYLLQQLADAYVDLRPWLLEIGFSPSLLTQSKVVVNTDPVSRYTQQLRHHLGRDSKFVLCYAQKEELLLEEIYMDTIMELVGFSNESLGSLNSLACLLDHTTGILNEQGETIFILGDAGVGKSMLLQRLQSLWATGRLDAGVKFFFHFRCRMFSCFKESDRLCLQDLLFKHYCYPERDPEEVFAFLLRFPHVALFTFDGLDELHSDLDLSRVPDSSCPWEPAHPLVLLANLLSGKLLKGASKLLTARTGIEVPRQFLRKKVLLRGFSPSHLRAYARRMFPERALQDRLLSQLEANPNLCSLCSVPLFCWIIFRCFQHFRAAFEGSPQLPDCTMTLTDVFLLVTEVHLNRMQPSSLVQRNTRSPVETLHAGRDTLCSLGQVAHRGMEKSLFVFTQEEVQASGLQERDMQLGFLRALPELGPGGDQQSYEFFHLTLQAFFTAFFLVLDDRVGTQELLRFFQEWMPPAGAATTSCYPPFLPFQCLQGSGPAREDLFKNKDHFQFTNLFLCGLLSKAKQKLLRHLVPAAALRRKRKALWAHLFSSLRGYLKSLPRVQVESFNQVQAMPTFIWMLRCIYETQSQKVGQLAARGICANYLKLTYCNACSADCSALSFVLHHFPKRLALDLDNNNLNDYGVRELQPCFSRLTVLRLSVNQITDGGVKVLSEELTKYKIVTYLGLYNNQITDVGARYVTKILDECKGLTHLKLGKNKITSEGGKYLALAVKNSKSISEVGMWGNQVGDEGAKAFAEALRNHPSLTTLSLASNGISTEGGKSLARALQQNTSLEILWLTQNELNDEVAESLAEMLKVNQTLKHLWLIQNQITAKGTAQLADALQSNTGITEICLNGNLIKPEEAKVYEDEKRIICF
# [10] = target: Nucleotide-binding oligomerization domain-containing protein 2 (Homo sapiens, UniProt Q9HC29); experiment: PubChem AID 2334; format: functional
# HEK293 = experiment: cells; conditions: Homo sapiens;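 further: cells exposed to compound for 14 hours overnight before viability readout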
# Streptokinase A = target: T4, Streptokinase A (Streptococcus pyogenes serotype M1, UniProt P10520); experiment: viability-normalized secreted streptokinase activity reduction – plasminogen activation absorbance, OD405, dose response (AID 1914); format: functional, Streptococcus pyogenes M1 GAS;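 further: secreted streptokinase activity via plasminogen activation per viability signal from cell pellet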
# T4 sequence (P10520 whole entry): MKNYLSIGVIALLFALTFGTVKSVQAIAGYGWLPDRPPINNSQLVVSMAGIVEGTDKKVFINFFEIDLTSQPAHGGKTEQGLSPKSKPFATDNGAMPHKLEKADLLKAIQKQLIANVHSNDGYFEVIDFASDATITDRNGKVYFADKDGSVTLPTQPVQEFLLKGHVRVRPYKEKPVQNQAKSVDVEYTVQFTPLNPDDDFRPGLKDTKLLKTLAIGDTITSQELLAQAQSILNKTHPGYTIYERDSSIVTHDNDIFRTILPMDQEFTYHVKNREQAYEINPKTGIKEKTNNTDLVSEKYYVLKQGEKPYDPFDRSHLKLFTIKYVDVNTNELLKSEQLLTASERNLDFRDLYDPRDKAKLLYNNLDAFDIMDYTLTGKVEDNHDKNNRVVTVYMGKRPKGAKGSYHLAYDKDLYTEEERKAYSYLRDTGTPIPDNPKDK
# Beta-galactosidase [11] = target: T2, Beta-galactosidase; experiment: PubChem AID 485352; format: functional
# [12] = target: T5, Kappa-type opioid receptor (Homo sapiens, UniProt P41145); format: functional
# [13] = target: T5, Kappa-type opioid receptor; format: functional; remark: listed apart in the source
# [14] = test system: Streptococcus sp. 'group A'; experiment: Streptococcus pyogenes SK(-)GAS viability under kanamycin – luminescence, BacTiterGlo, confirmation, counter-screen for streptokinase expression inhibitor project, dose response (AID 1900); format: functional, organism-based
# [15] = NIH3T3 cell viability loss – ATP luminescence, mouse fibroblasts, counter-screen, dose response (AID 2010); format: functional, cell-based;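 further: cells exposed to compound for about 90 hours before reading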
# Streptococcus = experiment: GAS UMAA2166 growth inhibition – luminescence, BacTiterGlo, counter-screen for streptokinase expression inhibitor project, dose response (AID 1915); format: functional, organism-based;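 further: potency for reduction of bacterial viability or growth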
# [16] = Trypanosoma cruzi growth suppression in host cells – NIH3T3 host cells, beta-gal luminescence, confirmation (AID 2044); format: functional, cell-based;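 further: intracellular parasites grown in NIH/3T3 mouse fibroblasts as host cells; luminescent beta-galactosidase reporter signal from transgenic T. cruzi replicating inside host cells; inhibitors lower the luminescence signal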
# Estrogen receptor = target: T6, Estrogen receptor (Homo sapiens, UniProt P03372);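 further: potency for inhibiting coactivator peptide recruitment to the receptor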
# T6 sequence (P03372 whole entry): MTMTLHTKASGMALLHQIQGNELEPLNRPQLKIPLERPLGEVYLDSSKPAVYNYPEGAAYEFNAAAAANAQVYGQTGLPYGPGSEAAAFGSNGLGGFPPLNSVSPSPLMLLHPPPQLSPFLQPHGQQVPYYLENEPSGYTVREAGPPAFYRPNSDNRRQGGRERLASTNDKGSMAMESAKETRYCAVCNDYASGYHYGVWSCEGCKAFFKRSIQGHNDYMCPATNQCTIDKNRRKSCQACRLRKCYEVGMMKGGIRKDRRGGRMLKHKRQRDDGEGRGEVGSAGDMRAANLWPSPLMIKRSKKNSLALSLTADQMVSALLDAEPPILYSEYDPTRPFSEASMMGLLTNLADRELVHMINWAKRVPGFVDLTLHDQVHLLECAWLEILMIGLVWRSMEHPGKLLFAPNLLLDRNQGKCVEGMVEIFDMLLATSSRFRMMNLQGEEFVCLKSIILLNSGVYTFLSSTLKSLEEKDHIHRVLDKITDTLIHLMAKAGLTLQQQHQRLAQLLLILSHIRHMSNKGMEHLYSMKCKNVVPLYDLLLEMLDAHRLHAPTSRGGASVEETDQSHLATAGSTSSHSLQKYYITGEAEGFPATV
# [17] = target: T7, Type-1 angiotensin II receptor (Homo sapiens, UniProt P30556); experiment: antagonism of angiotensin II type 1 receptor – cell-based, uHTS hits, selectivity assay for APJ receptor antagonist project, dose response (AID 463214); format: functional;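 further: antagonist potency against angiotensin II stimulated AT1 response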
# T7 sequence (P30556 whole entry): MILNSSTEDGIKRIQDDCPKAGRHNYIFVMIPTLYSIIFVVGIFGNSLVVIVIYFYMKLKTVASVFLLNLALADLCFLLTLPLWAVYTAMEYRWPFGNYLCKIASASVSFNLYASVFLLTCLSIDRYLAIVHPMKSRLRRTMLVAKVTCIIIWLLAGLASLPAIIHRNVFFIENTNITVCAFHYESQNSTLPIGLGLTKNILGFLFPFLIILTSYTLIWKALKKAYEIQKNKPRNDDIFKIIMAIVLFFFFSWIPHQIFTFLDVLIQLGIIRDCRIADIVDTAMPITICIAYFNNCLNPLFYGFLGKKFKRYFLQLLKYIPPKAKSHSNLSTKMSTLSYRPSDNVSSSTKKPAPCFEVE
# Beta-galactosidase [18] = target: T2, Beta-galactosidase; format: functional
# T2 sequence (Q8VNN2 whole entry): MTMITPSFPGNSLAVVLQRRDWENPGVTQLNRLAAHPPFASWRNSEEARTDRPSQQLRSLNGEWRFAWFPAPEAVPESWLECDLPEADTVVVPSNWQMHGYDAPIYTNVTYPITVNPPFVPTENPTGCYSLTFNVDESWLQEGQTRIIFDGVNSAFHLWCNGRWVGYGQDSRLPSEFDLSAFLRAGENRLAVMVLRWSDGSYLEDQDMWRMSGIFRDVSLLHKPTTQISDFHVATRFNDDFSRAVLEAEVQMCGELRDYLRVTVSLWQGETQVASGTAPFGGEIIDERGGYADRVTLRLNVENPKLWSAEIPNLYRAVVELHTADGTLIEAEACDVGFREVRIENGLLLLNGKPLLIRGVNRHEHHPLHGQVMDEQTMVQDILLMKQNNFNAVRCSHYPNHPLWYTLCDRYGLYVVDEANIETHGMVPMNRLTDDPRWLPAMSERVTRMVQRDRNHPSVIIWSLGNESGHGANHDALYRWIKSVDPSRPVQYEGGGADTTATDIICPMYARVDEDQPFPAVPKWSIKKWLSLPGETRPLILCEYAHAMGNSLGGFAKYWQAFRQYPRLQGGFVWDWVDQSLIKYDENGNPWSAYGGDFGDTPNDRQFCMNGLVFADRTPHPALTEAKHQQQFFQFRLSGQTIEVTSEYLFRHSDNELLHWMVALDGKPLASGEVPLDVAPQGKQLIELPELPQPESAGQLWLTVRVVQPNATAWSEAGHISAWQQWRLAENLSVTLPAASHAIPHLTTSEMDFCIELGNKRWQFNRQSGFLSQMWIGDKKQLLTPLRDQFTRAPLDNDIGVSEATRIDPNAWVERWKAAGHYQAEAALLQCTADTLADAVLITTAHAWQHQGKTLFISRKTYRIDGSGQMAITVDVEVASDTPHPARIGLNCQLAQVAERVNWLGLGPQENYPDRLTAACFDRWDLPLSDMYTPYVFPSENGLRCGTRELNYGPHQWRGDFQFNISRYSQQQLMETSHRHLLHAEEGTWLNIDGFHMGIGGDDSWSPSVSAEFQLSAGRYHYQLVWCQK
# T1 sequence (Q00975 whole entry): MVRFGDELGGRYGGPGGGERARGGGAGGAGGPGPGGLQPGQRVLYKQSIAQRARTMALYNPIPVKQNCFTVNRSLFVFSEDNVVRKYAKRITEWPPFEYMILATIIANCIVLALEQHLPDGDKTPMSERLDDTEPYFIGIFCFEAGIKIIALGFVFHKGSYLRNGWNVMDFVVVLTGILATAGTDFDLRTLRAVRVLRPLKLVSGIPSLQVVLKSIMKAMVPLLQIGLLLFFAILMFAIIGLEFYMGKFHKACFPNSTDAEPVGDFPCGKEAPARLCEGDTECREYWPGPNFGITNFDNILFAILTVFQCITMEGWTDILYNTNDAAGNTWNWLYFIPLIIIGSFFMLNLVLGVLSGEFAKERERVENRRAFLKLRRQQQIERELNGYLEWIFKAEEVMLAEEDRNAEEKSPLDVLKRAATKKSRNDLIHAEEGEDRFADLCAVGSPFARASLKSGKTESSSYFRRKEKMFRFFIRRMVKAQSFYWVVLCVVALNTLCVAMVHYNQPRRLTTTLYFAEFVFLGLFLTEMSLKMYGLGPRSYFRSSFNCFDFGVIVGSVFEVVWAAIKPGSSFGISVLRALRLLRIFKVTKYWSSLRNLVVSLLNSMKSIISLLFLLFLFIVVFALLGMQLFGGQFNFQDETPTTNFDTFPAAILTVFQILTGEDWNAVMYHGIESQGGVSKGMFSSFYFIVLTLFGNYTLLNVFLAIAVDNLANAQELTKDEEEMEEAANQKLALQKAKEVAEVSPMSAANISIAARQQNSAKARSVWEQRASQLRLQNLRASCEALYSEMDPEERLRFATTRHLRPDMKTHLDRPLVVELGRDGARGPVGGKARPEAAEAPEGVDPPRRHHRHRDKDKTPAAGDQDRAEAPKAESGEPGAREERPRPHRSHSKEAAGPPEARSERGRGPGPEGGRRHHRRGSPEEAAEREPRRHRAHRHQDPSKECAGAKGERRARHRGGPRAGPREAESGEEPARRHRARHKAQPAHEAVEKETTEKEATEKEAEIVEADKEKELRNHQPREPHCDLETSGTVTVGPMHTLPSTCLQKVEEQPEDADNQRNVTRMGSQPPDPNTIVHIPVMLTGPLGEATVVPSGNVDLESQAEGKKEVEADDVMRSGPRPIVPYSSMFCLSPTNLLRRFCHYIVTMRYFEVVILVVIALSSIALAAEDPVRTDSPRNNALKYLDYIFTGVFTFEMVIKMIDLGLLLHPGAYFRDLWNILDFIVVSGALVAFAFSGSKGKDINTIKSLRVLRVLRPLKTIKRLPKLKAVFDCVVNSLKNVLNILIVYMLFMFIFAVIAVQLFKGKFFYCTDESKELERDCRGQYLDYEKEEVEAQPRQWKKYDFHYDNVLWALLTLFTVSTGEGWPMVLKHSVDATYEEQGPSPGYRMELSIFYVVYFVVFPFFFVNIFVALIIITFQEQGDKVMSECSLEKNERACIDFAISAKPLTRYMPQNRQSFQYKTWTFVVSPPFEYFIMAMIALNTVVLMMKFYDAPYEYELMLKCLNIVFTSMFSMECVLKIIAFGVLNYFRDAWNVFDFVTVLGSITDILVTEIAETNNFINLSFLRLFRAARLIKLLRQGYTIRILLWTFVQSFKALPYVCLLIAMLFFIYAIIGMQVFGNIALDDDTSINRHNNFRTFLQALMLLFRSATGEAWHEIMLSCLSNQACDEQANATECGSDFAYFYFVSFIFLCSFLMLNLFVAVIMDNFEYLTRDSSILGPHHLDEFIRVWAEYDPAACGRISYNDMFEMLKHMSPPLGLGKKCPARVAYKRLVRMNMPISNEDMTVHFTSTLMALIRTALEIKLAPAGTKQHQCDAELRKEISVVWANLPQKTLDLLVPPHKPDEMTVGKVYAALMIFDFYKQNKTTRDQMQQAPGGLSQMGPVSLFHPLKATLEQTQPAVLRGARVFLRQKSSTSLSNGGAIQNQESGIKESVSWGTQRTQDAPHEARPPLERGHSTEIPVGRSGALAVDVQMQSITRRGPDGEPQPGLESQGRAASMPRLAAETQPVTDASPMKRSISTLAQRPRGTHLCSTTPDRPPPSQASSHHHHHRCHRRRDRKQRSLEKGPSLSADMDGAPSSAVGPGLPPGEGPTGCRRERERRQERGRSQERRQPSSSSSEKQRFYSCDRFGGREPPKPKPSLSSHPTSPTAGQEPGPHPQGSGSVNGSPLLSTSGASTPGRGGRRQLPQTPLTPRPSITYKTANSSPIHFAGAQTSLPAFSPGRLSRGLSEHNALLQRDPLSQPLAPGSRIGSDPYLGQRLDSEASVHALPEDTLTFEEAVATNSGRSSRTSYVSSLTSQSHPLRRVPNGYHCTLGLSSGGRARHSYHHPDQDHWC
# T1 sequence (Q02410 whole entry): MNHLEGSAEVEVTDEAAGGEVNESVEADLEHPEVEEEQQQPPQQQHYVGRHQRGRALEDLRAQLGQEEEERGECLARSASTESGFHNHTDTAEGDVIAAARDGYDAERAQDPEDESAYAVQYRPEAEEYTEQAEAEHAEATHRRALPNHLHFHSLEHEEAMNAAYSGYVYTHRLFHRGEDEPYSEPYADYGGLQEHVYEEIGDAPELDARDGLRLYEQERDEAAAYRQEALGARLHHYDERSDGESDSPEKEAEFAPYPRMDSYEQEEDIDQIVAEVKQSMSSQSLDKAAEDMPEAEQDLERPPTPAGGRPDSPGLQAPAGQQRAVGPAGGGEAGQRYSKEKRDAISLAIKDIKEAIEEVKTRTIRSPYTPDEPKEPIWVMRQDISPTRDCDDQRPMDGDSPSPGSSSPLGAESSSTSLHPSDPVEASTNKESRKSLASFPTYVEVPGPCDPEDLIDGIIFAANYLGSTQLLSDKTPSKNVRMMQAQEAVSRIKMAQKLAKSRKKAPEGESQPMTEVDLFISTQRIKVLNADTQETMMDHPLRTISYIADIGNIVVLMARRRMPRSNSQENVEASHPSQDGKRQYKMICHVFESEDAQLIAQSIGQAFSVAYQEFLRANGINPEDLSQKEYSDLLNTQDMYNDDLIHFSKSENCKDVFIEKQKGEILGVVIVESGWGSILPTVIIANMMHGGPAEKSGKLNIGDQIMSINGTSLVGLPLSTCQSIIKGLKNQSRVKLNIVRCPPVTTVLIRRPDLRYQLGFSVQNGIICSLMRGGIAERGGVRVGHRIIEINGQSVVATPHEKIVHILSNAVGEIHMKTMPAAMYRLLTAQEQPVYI
# T5 sequence (P41145 whole entry): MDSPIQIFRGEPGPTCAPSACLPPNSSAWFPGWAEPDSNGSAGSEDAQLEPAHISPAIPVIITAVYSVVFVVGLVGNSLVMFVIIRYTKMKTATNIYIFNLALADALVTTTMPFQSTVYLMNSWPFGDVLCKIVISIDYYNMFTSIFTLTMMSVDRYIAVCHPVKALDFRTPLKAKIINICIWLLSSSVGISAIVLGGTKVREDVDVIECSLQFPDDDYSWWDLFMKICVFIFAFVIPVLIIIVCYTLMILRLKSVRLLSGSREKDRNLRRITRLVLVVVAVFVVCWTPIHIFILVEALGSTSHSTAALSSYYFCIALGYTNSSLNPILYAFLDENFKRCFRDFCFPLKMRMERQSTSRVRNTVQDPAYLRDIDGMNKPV
# Chain of Tumor necrosis factor (P01375 whole entry, the tested form may be a part): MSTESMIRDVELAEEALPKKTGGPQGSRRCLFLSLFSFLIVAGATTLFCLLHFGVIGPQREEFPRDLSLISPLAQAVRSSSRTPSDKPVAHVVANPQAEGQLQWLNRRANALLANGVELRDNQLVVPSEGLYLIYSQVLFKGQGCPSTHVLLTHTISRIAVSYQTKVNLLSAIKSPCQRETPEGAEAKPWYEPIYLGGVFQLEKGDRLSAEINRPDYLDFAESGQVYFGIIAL
structure (smiles),measurement,setting,value
CC1=C(C)C[S+]([O-])N(S(=O)(=O)c2ccccc2)C1 (centres undefined),IC50,Large T antigen,19 µM (active)
same,IC50,[1],41.7 µM (active)
same,IC50,[2],> 50 µM (inactive)
C=CCNC(=O)/C(C#N)=C/c1ccc(OS(=O)(=O)c2ccc(C)cc2)c(OC)c1,IC50,Beta-galactosidase [3],> 80 µM (inactive)
same,EC50,[4],28.1 µM (active)
same,EC50,[5],26.6 µM (active)
same,IC50,[6],1.93 µM (active)
COc1ccc(C(=O)Nc2cccc3ncccc23)cc1,IC50,[7],> 100 µM (inactive)
same,IC50,[8],> 100 µM (inactive)
Nc1nc2ccccc2n1Cc1ccccc1Cl,IC50,Tumor necrosis factor,12.5 µM (active)
same,IC50,[9],12.9 µM (active)
same,IC50,[10],15.3 µM (active)
same,IC50,HEK293,> 20 µM (inactive)
Oc1c(/C=N/c2cccc3cccnc23)sc2ccccc12,EC50,Streptokinase A,> 150 µM (not active)
same,EC50,Beta-galactosidase [11],> 40 µM (inactive)
same,IC50,[12],4.86 µM (active)
same,IC50,[13],1120 nM
same,EC50,[14],7.7 µM (active)
same,EC50,[15],> 60 µM (not active)
same,EC50,Streptococcus,9.99 µM (active)
same,EC50,[16],2.58 µM (active)
same,IC50,Estrogen receptor,5.15 µM (active)
same,IC50,[17],2.78 µM (active)
same,EC50,Beta-galactosidase [18],> 31.5 µM (inactive)
